pIC50: −log10 of the molar value.
What was measured:
[1] = target: T1, Tyrosine-protein kinase Mer (Homo sapiens, UniProt Q12866); test: Inhibition of recombinant Mer (unknown origin) using poly (Glu,Tyr) 4:1 as substrate after 60 mins by ELISA
T1 sequence (Q12866 whole entry): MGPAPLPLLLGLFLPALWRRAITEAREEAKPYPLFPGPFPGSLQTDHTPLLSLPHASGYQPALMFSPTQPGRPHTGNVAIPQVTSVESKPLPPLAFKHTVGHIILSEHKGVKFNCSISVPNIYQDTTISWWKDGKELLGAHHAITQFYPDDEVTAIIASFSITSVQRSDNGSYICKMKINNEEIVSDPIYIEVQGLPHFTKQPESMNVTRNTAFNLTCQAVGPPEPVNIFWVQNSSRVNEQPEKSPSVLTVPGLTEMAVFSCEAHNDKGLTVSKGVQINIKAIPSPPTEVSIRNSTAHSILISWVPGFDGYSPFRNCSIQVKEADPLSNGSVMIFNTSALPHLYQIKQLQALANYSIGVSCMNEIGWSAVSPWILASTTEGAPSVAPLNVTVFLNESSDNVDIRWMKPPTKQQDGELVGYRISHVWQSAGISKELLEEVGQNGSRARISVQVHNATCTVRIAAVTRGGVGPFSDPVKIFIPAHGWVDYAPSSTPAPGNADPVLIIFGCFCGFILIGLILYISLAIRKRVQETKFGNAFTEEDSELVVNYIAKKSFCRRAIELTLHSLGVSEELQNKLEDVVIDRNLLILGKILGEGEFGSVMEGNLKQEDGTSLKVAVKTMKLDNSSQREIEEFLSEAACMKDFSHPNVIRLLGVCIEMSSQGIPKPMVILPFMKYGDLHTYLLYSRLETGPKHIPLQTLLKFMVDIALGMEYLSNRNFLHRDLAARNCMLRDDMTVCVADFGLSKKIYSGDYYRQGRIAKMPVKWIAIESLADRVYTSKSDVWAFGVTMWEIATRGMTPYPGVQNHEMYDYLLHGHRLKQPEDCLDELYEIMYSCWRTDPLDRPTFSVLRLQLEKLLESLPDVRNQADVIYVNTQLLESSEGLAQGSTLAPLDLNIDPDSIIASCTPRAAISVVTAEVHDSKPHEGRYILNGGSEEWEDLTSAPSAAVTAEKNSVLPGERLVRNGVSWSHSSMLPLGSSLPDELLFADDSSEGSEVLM

[2] = target: Fibroblast growth factor receptor 3 (Homo sapiens, UniProt P22607); test: Inhibition of recombinant human FGFR3 using poly (Glu,Tyr) 4:1 as substrate after 60 mins by ELISA
Ephrin type-A receptor 2 = Ephrin type-A receptor 2 (Homo sapiens, UniProt P29317); test: Inhibition of recombinant EPH-A2 (unknown origin) using poly (Glu,Tyr) 4:1 as substrate after 60 mins by ELISA
[3] = target: Vascular endothelial growth factor receptor 2 (Homo sapiens, UniProt P35968); test: Inhibition of recombinant KDR (unknown origin) using poly (Glu,Tyr) 4:1 as substrate after 60 mins by ELISA
[4] = target: T2, Tyrosine-protein kinase receptor TYRO3 (Homo sapiens, UniProt Q06418); test: Inhibition of recombinant Tyro3 (unknown origin) using poly (Glu,Tyr) 4:1 as substrate after 60 mins by ELISA
T2 sequence (Q06418 whole entry): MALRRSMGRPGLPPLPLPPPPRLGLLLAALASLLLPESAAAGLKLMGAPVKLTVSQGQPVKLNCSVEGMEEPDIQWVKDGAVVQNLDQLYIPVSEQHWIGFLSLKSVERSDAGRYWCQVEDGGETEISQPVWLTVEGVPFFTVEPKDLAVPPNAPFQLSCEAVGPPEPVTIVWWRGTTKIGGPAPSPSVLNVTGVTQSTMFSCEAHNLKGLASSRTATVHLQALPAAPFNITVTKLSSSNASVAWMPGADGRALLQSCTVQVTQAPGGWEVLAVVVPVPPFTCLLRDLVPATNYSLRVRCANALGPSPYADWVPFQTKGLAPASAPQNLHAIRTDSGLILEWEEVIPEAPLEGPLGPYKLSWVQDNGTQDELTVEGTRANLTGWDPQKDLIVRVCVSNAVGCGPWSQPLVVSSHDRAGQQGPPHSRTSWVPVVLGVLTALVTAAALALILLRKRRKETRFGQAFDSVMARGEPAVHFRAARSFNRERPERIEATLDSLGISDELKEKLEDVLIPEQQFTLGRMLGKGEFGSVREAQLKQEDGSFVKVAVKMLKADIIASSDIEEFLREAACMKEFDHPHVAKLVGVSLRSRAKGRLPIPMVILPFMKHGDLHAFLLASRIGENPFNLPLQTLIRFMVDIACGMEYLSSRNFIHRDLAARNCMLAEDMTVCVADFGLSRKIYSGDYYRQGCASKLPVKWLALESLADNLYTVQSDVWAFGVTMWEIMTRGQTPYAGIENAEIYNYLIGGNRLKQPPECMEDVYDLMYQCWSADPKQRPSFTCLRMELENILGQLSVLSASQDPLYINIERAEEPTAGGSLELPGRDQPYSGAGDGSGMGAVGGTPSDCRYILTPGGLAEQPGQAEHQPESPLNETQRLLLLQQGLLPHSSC

Mus musculus [5] = test: Toxicity in nude mouse xenografted with human NCI-H1581 cells assessed as body weight loss at 20 mg/kg, po qd administered for 14 days; type: organism-based; conditions: in vivo, 336 h
Mus musculus [6] = test: Unbound Cmax in CD-1 mouse at 20 mg/kg, po by LC-MS/MS method; type: ADME, organism-based; conditions: in vivo
[7] = Half life in Sprague-Dawley rat at 10 mg/kg, iv by LC-MS/MS method; type: ADME, organism-based; conditions: in vivo
[8] = MRT in CD-1 mouse at 20 mg/kg, po by LC-MS/MS method; type: ADME, organism-based; conditions: in vivo
[9] = AUC (0 to infinity) in CD-1 mouse at 20 mg/kg, po by LC-MS/MS method; type: ADME, organism-based; parameters: dose 20 mg/kg, time infinity, route oral; conditions: in vivo
[10] = AUC (0 to infinity) in Sprague-Dawley rat at 10 mg/kg, iv by LC-MS/MS method; type: ADME, organism-based; parameters: dose 10 mg/kg, time infinity, route intravenous; conditions: in vivo
Mus musculus [11] = test: Unbound Cmax in CD-1 mouse at 5 mg/kg, iv by LC-MS/MS method; type: ADME, organism-based; conditions: in vivo
Mus musculus [12] = test: Toxicity in nude mouse xenografted with human NCI-H1581 cells assessed as diarrhea at 20 mg/kg, po qd administered for 14 days; type: organism-based; conditions: in vivo, 336 h
[13] = Tmax in Sprague-Dawley rat at 20 mg/kg, po by LC-MS/MS method; type: ADME, organism-based; conditions: in vivo
[14] = AUC (0 to infinity) in Sprague-Dawley rat at 20 mg/kg, po by LC-MS/MS method; type: ADME, organism-based; parameters: dose 20 mg/kg, route oral, time infinity; conditions: in vivo
NCI-H1581 = test: Antitumor activity against human NCI-H1581 cells xenografted in nude mouse assessed as tumor growth inhibition at 20 mg/kg, po qd administered for 14 days measured twice per week during compound dosing; type: functional; conditions: 336 h, read-out: TGI
[15] = AUC (0 to t) in Sprague-Dawley rat at 20 mg/kg, po by LC-MS/MS method; type: ADME, organism-based; conditions: in vivo
[16] = AUC (0 to t) in Sprague-Dawley rat at 10 mg/kg, iv by LC-MS/MS method; type: ADME, organism-based; conditions: in vivo

Sequence of Vascular endothelial growth factor receptor 2 (P35968 whole entry): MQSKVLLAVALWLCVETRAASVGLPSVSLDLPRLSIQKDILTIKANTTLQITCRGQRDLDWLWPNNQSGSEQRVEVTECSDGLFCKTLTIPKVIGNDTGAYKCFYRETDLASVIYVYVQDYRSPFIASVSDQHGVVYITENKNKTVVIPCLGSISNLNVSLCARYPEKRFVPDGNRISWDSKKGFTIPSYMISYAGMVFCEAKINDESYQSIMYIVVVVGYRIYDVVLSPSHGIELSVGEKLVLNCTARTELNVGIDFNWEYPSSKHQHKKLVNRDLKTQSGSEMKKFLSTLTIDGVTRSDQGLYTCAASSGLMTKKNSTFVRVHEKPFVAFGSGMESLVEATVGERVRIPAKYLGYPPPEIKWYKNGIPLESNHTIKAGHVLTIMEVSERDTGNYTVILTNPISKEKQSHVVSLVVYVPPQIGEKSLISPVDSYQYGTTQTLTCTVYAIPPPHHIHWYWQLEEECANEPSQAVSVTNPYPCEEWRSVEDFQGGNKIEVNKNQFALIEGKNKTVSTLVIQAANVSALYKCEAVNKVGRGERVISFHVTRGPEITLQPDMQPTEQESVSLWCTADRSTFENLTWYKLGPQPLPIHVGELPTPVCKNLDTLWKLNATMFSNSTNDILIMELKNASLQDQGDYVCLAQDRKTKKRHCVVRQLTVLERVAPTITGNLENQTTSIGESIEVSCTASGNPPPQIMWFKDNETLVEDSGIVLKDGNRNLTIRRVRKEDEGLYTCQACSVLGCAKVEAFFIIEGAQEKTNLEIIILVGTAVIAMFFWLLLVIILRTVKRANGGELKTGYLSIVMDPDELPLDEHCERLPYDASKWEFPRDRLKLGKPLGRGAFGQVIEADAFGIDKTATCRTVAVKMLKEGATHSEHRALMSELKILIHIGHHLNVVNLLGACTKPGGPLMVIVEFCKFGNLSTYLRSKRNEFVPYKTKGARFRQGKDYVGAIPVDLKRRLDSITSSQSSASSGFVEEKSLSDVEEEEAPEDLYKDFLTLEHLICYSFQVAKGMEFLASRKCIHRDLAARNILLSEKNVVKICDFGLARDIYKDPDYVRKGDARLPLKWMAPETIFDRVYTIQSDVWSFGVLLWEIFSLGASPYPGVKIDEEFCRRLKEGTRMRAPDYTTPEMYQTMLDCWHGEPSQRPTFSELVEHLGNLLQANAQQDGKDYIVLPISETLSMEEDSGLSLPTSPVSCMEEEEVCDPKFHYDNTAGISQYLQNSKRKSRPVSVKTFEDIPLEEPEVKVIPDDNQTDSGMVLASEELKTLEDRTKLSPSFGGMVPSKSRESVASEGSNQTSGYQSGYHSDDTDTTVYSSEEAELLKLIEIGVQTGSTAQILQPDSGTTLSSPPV
Sequence of Ephrin type-A receptor 2 (P29317 whole entry): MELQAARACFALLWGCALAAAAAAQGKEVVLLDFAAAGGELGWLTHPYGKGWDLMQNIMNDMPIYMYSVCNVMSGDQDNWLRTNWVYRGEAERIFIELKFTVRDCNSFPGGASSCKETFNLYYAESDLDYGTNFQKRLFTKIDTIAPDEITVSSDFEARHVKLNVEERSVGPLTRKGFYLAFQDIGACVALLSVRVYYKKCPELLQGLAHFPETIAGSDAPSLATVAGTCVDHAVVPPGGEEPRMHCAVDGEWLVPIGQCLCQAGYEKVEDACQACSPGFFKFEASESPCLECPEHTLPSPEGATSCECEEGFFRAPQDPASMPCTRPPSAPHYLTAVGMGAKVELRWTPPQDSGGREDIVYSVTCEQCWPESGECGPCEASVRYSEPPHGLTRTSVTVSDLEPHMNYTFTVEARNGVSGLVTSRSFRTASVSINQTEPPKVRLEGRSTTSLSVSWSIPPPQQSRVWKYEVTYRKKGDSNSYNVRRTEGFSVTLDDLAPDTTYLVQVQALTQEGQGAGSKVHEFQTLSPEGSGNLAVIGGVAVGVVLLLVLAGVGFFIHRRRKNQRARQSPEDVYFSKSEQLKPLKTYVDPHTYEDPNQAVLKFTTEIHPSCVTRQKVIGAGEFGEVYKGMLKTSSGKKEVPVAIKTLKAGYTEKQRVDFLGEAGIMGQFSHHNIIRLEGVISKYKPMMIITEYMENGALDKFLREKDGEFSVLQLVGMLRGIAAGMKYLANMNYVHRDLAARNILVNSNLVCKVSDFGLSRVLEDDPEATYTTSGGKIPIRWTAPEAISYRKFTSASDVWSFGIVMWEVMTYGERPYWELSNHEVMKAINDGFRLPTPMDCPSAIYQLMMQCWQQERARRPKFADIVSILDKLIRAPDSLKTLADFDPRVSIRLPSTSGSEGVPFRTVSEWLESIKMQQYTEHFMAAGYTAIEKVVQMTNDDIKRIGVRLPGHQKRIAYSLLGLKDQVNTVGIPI
Sequence of Fibroblast growth factor receptor 3 (P22607 whole entry): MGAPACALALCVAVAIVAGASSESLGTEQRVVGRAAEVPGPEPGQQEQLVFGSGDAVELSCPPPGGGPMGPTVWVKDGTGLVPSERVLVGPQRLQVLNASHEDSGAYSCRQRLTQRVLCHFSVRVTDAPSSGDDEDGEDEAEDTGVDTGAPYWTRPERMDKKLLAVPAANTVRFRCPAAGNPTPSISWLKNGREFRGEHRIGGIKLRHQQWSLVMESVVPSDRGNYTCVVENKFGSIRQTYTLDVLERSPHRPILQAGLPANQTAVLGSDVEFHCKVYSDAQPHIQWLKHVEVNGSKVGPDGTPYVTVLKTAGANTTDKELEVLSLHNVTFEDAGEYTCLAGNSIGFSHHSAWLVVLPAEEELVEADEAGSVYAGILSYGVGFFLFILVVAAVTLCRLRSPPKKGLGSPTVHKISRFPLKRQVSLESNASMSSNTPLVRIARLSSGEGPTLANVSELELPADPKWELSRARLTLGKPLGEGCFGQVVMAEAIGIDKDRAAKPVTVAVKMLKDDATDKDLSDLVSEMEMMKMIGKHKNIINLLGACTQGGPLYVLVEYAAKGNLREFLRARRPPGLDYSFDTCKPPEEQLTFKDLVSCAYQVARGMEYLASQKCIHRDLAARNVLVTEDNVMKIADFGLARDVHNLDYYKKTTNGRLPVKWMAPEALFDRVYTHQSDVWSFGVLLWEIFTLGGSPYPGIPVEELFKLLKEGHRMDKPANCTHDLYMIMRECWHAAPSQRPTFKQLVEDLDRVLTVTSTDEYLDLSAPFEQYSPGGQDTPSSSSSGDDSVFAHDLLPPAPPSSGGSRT

| Compound | pIC50 [1] | pIC50 [2] | pIC50 (Ephrin type-A receptor 2) | pIC50 [3] | pIC50 [4] | Activity (Mus musculus [5]) | fCmax (Mus musculus [6]) [nM] | half-life [7] [h] | MRT [8] [h] | AUC(0-inf) [9] [ng·h/mL] | AUC(0-inf) [10] [ng·h/mL] | fCmax (Mus musculus [11]) [nM] | Activity (Mus musculus [12]) | Tmax [13] [h] | AUC(0-inf) [14] [ng·h/mL] | inhibition in vivo at 20 mg/kg (NCI-H1581) [%] | AUC(0-t) [15] [ng·h/mL] | AUC(0-t) [16] [ng·h/mL] |
| --- | --- | --- | --- | --- | --- | --- | --- | --- | --- | --- | --- | --- | --- | --- | --- | --- | --- | --- |
| Cc1n[nH]c2ccc(-c3cc(N[C@@H](CO)c4ccccc4)cnc3-c3cc(Cl)ccc3O)cc12 | 7.51 | 7.14 | < 8.00 | 8.43 | < 6.00 |  |  |  |  |  |  |  |  |  |  |  |  |  |
| Cc1n[nH]c2ccc(-c3cc(N[C@@H](CO)c4ccccc4)cnc3-c3ccc(F)cc3O)cc12 | 8.15 | 7.80 | < 7.00 | 8.59 | < 6.00 |  |  |  |  |  |  |  |  |  |  |  |  |  |
| Cc1n[nH]c2ccc(-c3cc(N[C@@H](CO)c4ccccc4)cnc3-c3cc(F)ccc3O)cc12 | 7.43 | 7.56 | < 8.00 | 8.77 | < 6.00 | Toxic | 10.2 | 2.39 | 3.59 | 2410 | 13800 | 1.1 | Toxic | 1 | 18700 | 66.1 | 16600 | 13700 |
| OC[C@H](Nc1cnc(-c2cc(Cl)ccc2O)c(-c2ccc3cnccc3c2)c1)c1ccccc1 | 8.36 | 7.64 | < 7.00 | 9.10 | < 6.00 |  |  |  |  |  |  |  |  |  |  |  |  |  |
